From ChEMBL document CHEMBL1159331, “Cytotoxic prenylated xanthones and the unusual compounds anthraquinobenzophenones from Cratoxylum sumatranum” (J Nat Prod, 2002) come the findings set out here.

Converted amounts (≈) assume the structure as drawn. The source made the active and inactive calls. No cut-off for these calls is given here.

The first assay has as its system P388. Description: In vivo antitumor activity against mouse P388 cells at 75 mg/kg, ip. The assay is classed as functional, organism-based. Details: dose 75 mg/kg.
Regarding `COc1cc(OC)c2oc3cc(O)c(CC=C(C)C)c(O)c3c(=O)c2c1CC=C(C)C` [CRATOXYARBORENONE C], the result was inactive.

The next assay relates to KB. Description: Cytotoxicity against human KB cells by MTT assay. The assay is classed as functional, cell-based. In general terms: Formazan colour is commonly taken as a measure of viable cells.
In the case of `COc1cc2c(c(O)c1C(CC(C)C)c1c(OC/C=C(\C)CCC=C(C)C)cc(O)c(C(=O)c3ccccc3)c1O)C(=O)c1c(O)cc(C)cc1C2=O` (stereo not given), the outcome was inactive.

With `COc1cc2c(c(O)c1C(CC(C)CCC=C(C)C)c1c(OC/C=C(\C)CCC=C(C)C)cc(O)c(C(=O)c3ccccc3)c1O)C(=O)c1c(O)cc(C)cc1C2=O` (stereo not given), the outcome was inactive.

In general, EC50 refers to the midpoint of the concentration-response curve. High values mean a less potent agent, low ones a more potent agent. For the molecule `CC(C)=CCC/C(C)=C/Cc1c(O)cc(O)c2oc3cc(O)c(CC=C(C)C)c(O)c3c(=O)c12` [CRATOXYARBORENONE A], the EC50 was 4.3 µg/mL (≈ 9.26 µM).

As to `CC(C)=CCc1c(O)cc2oc3c(O)cc(O)c(CC=C(C)C)c3c(=O)c2c1O` [CRATOXYARBORENONE B], the EC50 amounted to 1 µg/mL (≈ 2.52 µM).

Molecule `COc1cc(OC)c2oc3cc(O)c(CC=C(C)C)c(O)c3c(=O)c2c1CC=C(C)C` [CRATOXYARBORENONE C] displayed an EC50 of 1.5 µg/mL (≈ 3.53 µM).

On to `C=C(C)C1Cc2c(cc3oc4c(O)c(O)c(O)c(CC=C(C)C)c4c(=O)c3c2O)O1` (stereo not given) [CRATOXYARBORENONE D], for which the EC50 is 1.7 µg/mL (≈ 4.14 µM).

The molecule `COc1c(O)cc2c(=O)c3c(O)cc(O)c(CC=C(C)C)c3oc2c1CC=C(C)C` [CRATOXYARBORENONE E] showed an EC50 of 4.3 µg/mL (≈ 10.5 µM).

The molecule `COc1ccc(O)c2c(=O)c3ccc(O)cc3oc12` [CRATOXYARBORENONE F] showed an EC50 of 4.1 µg/mL (≈ 15.9 µM).

For `COc1cc2cc3c(c(O)c2c2c1C=CC(C)(C)O2)C(=O)CC(C)(O)C3` (stereo not given) [VISMIONE B], the response was half-maximal at 1.3 µg/mL (≈ 3.67 µM) (EC50).
